Results published in patent publication US20070249670A1, “Glycogen Phosphorylase Inhibitor Compounds and Pharmaceutical Compositions Thereof” (SMITHKLINE BEECHAM CORPORATION, priority 2004, published 2007).

What follows are compounds tested against T1, human liver glycogen phosphorylase a (HLGPa) (Homo sapiens, UniProt P06737) (assay: Human liver glycogen phosphorylase a enzymatic activity assay (coupled, fluorescent resorufin readout, with and without 10 mM glucose)). Conditions: human liver glycogen phosphorylase a enzymatic activity assay.
T1 construct: creating a full-length cDNA fused at the 5′ end to codons for methionine-glycine-alanine-histidine; 6xHis tag (leader Met-Gly-Ala-His6-Gly-Gly) (N); made in house; host or cells: E. coli (bacterial expression plasmid pTXK1007LTev)
T1 sequence (P06737 2-847 limits assumed): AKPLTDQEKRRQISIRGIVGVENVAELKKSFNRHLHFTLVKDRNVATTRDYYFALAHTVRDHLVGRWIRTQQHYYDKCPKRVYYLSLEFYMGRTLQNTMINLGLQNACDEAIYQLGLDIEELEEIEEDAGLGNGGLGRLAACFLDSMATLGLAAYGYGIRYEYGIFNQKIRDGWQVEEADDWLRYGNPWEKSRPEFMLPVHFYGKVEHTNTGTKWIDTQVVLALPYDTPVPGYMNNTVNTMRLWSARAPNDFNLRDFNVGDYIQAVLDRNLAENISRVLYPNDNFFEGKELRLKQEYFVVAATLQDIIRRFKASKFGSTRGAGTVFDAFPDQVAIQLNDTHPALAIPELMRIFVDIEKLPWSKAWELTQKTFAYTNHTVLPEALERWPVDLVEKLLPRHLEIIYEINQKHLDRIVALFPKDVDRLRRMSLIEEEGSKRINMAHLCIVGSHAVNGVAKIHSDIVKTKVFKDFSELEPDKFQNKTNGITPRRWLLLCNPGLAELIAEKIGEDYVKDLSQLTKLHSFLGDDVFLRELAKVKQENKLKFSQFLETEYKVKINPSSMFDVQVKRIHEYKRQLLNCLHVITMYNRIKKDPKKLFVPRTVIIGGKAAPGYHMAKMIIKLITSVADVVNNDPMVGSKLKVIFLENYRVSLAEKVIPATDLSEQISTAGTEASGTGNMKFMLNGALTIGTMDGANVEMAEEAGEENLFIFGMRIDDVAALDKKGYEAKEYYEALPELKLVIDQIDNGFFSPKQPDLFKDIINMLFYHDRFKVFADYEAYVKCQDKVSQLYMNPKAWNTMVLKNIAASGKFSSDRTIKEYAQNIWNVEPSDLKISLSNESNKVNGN
Assay type: biochemical

In order of falling IC50:
1. O=C(Nc1cc(Cl)ccc1C(=O)O)Nc1c(Cl)cccc1Cl [Example 165, 4-Chloro-2-({[(2,6-dichlorophenyl)amino]carbonyl}amino)benzoic acid]  15100 nM
2. Cc1cccc(C)c1NC(=O)Nc1cc(Cl)ccc1C(=O)O [Example 166]  8640 nM
3. Cc1cccc(C)c1NC(=O)Nc1cc(Cl)ccc1C(=O)NCC(=O)O [Example 170, N{[4chloro2({[(2,6dimethylphenyl)amino]carbonyl}amino)phenyl]carbonyl}glycine]  2910 nM
4. Cc1cccc(C)c1NC(=O)Nc1cc(C(F)(F)F)ccc1C(=O)N[C@H](C(=O)O)C1CCCCC1 [Example 178, (2S)-cyclohexyl({[2-({[(2,6-dimethylphenyl)amino]carbonyl}amino)-4-(trifluoromethyl)phenyl]carbonyl}amino)ethanoic acid]  2330 nM
5. Cc1cccc(C)c1NC(=O)Nc1cc(Cl)ccc1C(=O)N[C@@H](CC(=O)O)C(=O)O [Example 174, N-{[4-Chloro-2-({[(2,6-dimethylphenyl)amino]carbonyl}amino)phenyl]carbonyl}-L-aspartic acid]  770 nM
6. Cc1ccc(C(=O)N[C@H](C(=O)O)C2CCCCC2)c(NC(=O)Nc2c(C)cccc2C)c1 [Example 176, (2S)-cyclohexyl({[2-({[(2,6-dimethylphenyl)amino]carbonyl}amino)-4-methylphenyl]carbonyl}amino)ethanoic acid]  750 nM
7. Cc1cccc(C)c1NC(=O)Nc1cc(F)ccc1C(=O)N[C@H](C(=O)O)C1CCCCC1 [Example 190, (2S)-Cyclohexyl({[2-({[(2,6-dimethylphenyl)amino]carbonyl}amino)-4-fluorophenyl]carbonyl}amino)ethanoic acid]  700 nM
8. Cc1ccc(NC(=O)Nc2c(C)cccc2C)c(C(=O)N[C@H](C(=O)O)C2CCCCC2)c1 [Example 169, (2S)Cyclohexyl({[2({[(2,6dimethylphenyl)amino]carbonyl}amino)-5-methylphenyl]carbonyl}amino)ethanoic acid]  680 nM
9. Cc1cccc(C)c1NC(=O)Nc1cc2ccccc2cc1C(=O)NCCC(=O)O [Example 163, N-[3-({[(2,6-dimethylphenyl)amino]carbonyl}amino)-2-naphthoyl]-beta-alanine]  509 nM
10. Cc1cccc(C)c1NC(=O)Nc1cc(Cl)ccc1C(=O)N[C@H](C(=O)O)C1CCCCC1 [Example 167, (2S)-({[4-Chloro-2-({[(2,6-dimethylphenyl)amino]carbonyl}amino)phenyl]carbonyl}amino)(cyclohexyl)-ethanoic acid]  390 nM
11. O=C(Cc1c(Cl)cc(Cl)cc1Cl)Nc1cc(-c2ccccc2)ccc1C(=O)N[C@H](C(=O)O)C1CCCCC1 [Example 186, (2S)-Cyclohexyl{[(3-{[(2,4,6-trichlorophenyl)acetyl]amino}-4-biphenylyl)carbonyl]amino}ethanoic acid]  341 nM
12. O=C(Nc1cc(Cl)ccc1C(=O)N[C@H](C(=O)O)C1CCCCC1)Nc1c(Cl)cc(Cl)cc1Cl [Example 171, (2S)-({[4-Chloro-2-({[(2,4,6-trichlorophenyl)amino]carbonyl}amino)phenyl]carbonyl}amino)(cyclohexyl)-ethanoic acid]  330 nM
13. Cc1cccc(C)c1NC(=O)Nc1cc(-c2cncnc2)ccc1C(=O)N[C@H](C(=O)O)C1CCCCC1 [Example 189, (2S)-Cyclohexyl({[2-({[(2,6-dimethylphenyl)amino]carbonyl}amino)-4-(5-pyrimidinyl)phenyl]carbonyl}amino)ethanoic acid]  330 nM
14. Cc1cccc(C)c1NC(=O)Nc1cc(Br)ccc1C(=O)N[C@H](C(=O)O)C1CCCCC1 [Example 173, (2S)-({[4-Bromo-2-({[(2,6-dimethylphenyl)amino]carbonyl}amino)phenyl]carbonyl}amino)(cyclohexyl)-ethanoic acid]  310 nM
15. Cc1cccc(C)c1NC(=O)Nc1cc(-c2ccsc2)ccc1C(=O)N[C@H](C(=O)O)C1CCCCC1 [Example 184, (2S)-Cyclohexyl({[2-({[(2,6-dimethylphenyl)amino]carbonyl}amino)-4-(3-thienyl)phenyl]carbonyl}amino)ethanoic acid]  220 nM
16. O=C(Nc1cc(Cl)ccc1C(=O)N[C@H](C(=O)O)C1CCCCC1)Nc1c(Cl)cccc1Cl [Example 168, (2S)-({[4-Chloro-2-({[(2,6-dichlorophenyl)amino]carbonyl}amino)phenyl]carbonyl}amino)(cyclohexyl)-ethanoic acid]  200 nM
17. Cc1cccc(Cl)c1NC(=O)Nc1cc(Cl)ccc1C(=O)N[C@H](C(=O)O)C1CCCCC1 [Example 172, (2S)-({[4-Chloro-2-({[(2-chloro-6-methylphenyl)amino]carbonyl}-amino)phenyl]carbonyl}amino)(cyclohexyl)ethanoic acid]  180 nM
18. Cc1cccc(C)c1NC(=O)Nc1cc(-c2ccncc2)ccc1C(=O)N[C@H](C(=O)O)C1CCCCC1 [Example 185, (2S)-Cyclohexyl({[2-({[(2,6-dimethylphenyl)amino]carbonyl}amino)-4-(4-pyridinyl)phenyl]carbonyl}amino)ethanoic acid]  170 nM
19. Cc1cccc(C)c1NC(=O)Nc1cc(-c2ccccc2)ccc1C(=O)N[C@H](C(=O)O)C1CCCCC1 [Example 175, (2S)-Cyclohexyl({[3-({[(2,6-dimethylphenyl)amino]carbonyl}amino)-4-biphenylyl]carbonyl}amino)ethanoic acid]  163 nM
20. O=C(Cc1c(Cl)cc(C(F)(F)F)cc1Cl)Nc1cc2ccccc2cc1C(=O)N[C@H](C(=O)O)C1CCCCC1 [Example 161, (2S)-cyclohexyl{[3-({[2,6-dichloro-4-(trifluoromethyl)phenyl]acetyl}amino)-2-naphthoyl]amino}ethanoic acid]  110 nM
21. O=C(Nc1cc(Cl)c(Cl)cc1C(=O)N[C@H](C(=O)O)C1CCCCC1)Nc1c(Cl)cccc1Cl [Example 177, (2S)-Cyclohexyl({[4,5-dichloro-2-({[(2,6-dichlorophenyl)amino]-carbonyl}amino)phenyl]carbonyl}amino)ethanoic acid]  100 nM
22. Cc1cccc(C)c1NC(=O)Nc1cc(-c2cccs2)ccc1C(=O)N[C@H](C(=O)O)C1CCCCC1 [Example 183, (2S)-Cyclohexyl({[2-({[(2,6-dimethylphenyl)amino]carbonyl}amino)-4-(2-thienyl)phenyl]carbonyl}amino)ethanoic acid]  100 nM
23. Cc1cccc(C)c1NC(=O)Nc1cc(-c2cccnc2)ccc1C(=O)N[C@H](C(=O)O)C1CCCCC1 [Example 181, (2S)-Cyclohexyl({[2-({[(2,6-dimethylphenyl)amino]carbonyl}amino)-4-(3-pyridinyl)phenyl]carbonyl}amino)ethanoic acid]  99 nM
24. Cc1cccc(C)c1NC(=O)Nc1cc(Cl)c(Cl)cc1C(=O)N[C@H](C(=O)O)C1CCCCC1 [Example 180, (2S)-Cyclohexyl({[4,5-dichloro-2-({[(2,6-dimethylphenyl)amino]carbonyl}amino)phenyl]carbonyl}amino)ethanoic acid]  94 nM
25. Cc1cccc(C)c1NC(=O)Nc1cc(-c2ccc(F)c(F)c2)ccc1C(=O)N[C@H](C(=O)O)C1CCCCC1 [Example 188, (2S)-Cyclohexyl({[3-({[(2,6-dimethylphenyl)amino]carbonyl}amino)-3′,4′-difluoro-4-biphenylyl]carbonyl}amino)ethanoic acid]  74 nM
26. O=C(Cc1c(Cl)cc(Cl)cc1Cl)Nc1cc2ccccc2cc1C(=O)N[C@H](C(=O)O)C1CCCCC1 [Example 162, (2S)-cyclohexyl[(3-{[(2,4,6-trichlorophenyl)acetyl]amino}-2-naphthoyl)amino]ethanoic acid]  46 nM
27. Cc1cc(C)c(NC(=O)Nc2cc(Cl)ccc2C(=O)N[C@H](C(=O)O)C2CCCCC2)c(C)c1 [Example 179, (2S)-({[4-Chloro-2-({[(2,4,6-trimethylphenyl)amino]carbonyl}-amino)phenyl]carbonyl}amino)(cyclohexyl)ethanoic acid]  35 nM
28. Cc1cccc(C)c1NC(=O)Nc1cc(-c2ccc(O)cc2)ccc1C(=O)N[C@H](C(=O)O)C1CCCCC1 [Example 187, (2S)-Cyclohexyl({[3-({[(2,6-dimethylphenyl)amino]carbonyl}amino)-4′-hydroxy-4-biphenylyl]carbonyl}amino)ethanoic acid]  34 nM
29. Cc1cc(C)c(NC(=O)Nc2cc(-c3ccccc3)ccc2C(=O)N[C@H](C(=O)O)C2CCCCC2)c(C)c1 [Example 182, (2S)-Cyclohexyl({[3-({[(2,4,6-trimethylphenyl)amino]carbonyl}-amino)-4-biphenylyl]carbonyl}amino)ethanoic acid]  17 nM
